Here are results for 2 molecules from PMC6328587 (Nature Communications, 2019).

The target in series [1] is T1, FLAG-p38δ (Homo sapiens, UniProt O15264).
T1 construct: expressed in transfected cells; host or cells: HeLa
T1 sequence (O15264 1-365): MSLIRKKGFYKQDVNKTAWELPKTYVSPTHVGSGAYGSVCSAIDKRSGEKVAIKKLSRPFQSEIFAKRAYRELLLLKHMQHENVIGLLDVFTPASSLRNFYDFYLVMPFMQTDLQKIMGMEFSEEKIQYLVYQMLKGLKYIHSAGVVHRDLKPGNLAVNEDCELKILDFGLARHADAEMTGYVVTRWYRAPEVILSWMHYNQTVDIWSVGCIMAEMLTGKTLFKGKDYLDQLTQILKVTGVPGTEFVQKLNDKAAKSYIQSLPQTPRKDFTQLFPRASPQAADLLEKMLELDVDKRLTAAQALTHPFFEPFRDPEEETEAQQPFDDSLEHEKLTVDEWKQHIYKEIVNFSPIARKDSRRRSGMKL
As to the kind of experiment: Ubiquitination assay, FLAG-p38δ and HA-Ub in HeLa cells. The class given is cell-based. The conditions noted are these: 1 µM PROTAC, 2 h. How it is done: HeLa cells (2 × 10^6) were seeded into 10 cm dishes and allowed to adhere overnight. On the following day, cells were transfected with 3 µg pcDNA5-FLAG-p38α or pcDNA5-FLAG-p38δ and 1 µg pRK5-HA-Ubiquitin-WT (Addgene plasmid #17608) in Opti-MEM media using Lipofectamine 2000 (Invitrogen). After 6 h, Opti-MEM media were replaced with DMEM (1 × ) and cells were grown for an additional 24 h. After this time, cells were treated with indicated concentrations of either vehicle (DMSO) or PROTAC for the indicated amount of time at 37 °C. Cells were then placed on ice, rinsed twice with ice-cold 1X PBS and lysed in 500 µL modified 1X RIPA buffer (25 mM Tris-HCl pH 7.6, 150 mM NaCl, 1% NP-40, 1% sodium deoxycholate, 0.1% SDS) containing 5 mM 1,10-phenanthroline monohydrate, 10 mM N-ethylmaleimide, 20 µM PR-619, and 1X protease inhibitor cocktail (Roche). Lysates were spun down at 14,000 × g at 4 °C for 20 min and protein content was measured by Pierce BCA Protein Assay (ThermoFisher Scientific). […] Immunoprecipitated protein was eluted off of the beads by heating at 95 °C for 5 min and the supernatant was run on an SDS-PAGE gel and evaluated for the presence of immunoprecipitated FLAG-tagged proteins (anti-FLAG M2, Sigma #F1804), as well as ubiquitinated FLAG-tagged proteins (anti-HA-tag (6E2), CST #2367). […]

Series [2] deals with T2, ERK2 (Homo sapiens, UniProt P28482).
T2 construct: endogenous in cells; host or cells: MDA-MB-231
As to the kind of experiment: ERK2 degradation, western blot in MDA-MB-231 cells. The class given is cell-based. The settings on record: 0.025-2.5 µM. As to the method:
[…] once with ice-cold PBS (1 × ), followed by lysis in buffer containing 25 mM Tris [pH 7.5], 0.25% sodium deoxycholate, 1% Triton X-100, supplemented with 1X protease inhibitor cocktail (Roche), and phosphatase inhibitors (10 mM NaF, 1 mM Na3VO4, and 20 mM β-glycerophosphate), unless otherwise noted. Lysates were spun at 14,000 × g for 10 min at 4 °C and supernatant was evaluated for protein content using a Pierce BCA Protein Assay (ThermoFisher Scientific). In all experiments, 25–50 μg of protein was loaded onto 10% SDS-PAGE gels or 4–20% Criterion TGX precast gradient gels (Bio-Rad), transferred to nitrocellulose membranes, and probed with the specified antibodies overnight at 4 °C in 1X TBS-Tween (Tris-buffered saline plus 0.02% Tween 20) containing 5% non-fat milk. Immunoblots were visualized using a Bio-Rad ChemiDoc imaging instrument and subsequently processed and quantified using the accompanying Bio-Rad ImageLab software. See Supplementary Figure 8 for uncropped scans of western blots shown in the main text figures.
Supplementary Figure 4 cont.
Supplementary Figure 4. Characterization of M APK fam ily degradation selectivity (related to Figures 1-2). (a) p38 M APK fam ily m em bers (α, β, δ, γ) were aligned using the T-Coffee multiple sequence alignm ent server. […] Note: JNK1 and JNK2 are expressed as two alternatively-spliced form s. […]

Series [3] concerns the target T3, p38δ:PROTAC:VHL (Homo sapiens, UniProt O15264+P40337).
T3 construct: encoding a region spanning amino acids 1–365; His6 (N); made in house; host or cells: E. coli BL21-CodonPlus(DE3)-RIPL (p38δ); E. coli BL21(DE3) (GST-VBC)
Nature of the series: SPR ternary binding, equimolar p38δ:PROTAC injected onto immobilized VHL. The conditions noted are these: for p38δ:PROTAC:VHL t1/2: ternary complex half-life. How it is done:
SPR experiments were conducted on a Biacore 3000 instrument (GE Healthcare) at room temperature. GST antibody was immobilized through direct amination onto a carboxymethylated dextran surface (CM5) and GST-VBC was captured on the CM5 surface. This prepared surface was equilibrated over 3 h in running buffer (10 mM HEPES buffer pH 7.4, 150 mM NaCl, 0.4 mg mL^−1 BSA, 0.005% P20, 2% DMSO). All compounds were prepared in 100% DMSO stock plates with a top concentration of 500 µM in a 3× serial dilution. Compounds were transferred from the stock plate to the assay plate and diluted into running buffer without DMSO. Equimolar concentration of target protein was added to corresponding compound wells. All compounds were run as a 12-point concentration series with a final assay top concentration of 50 µM to measure p38δ:PROTAC and VHL:PROTAC binding and top concentration of 5 µM to measure p38δ:PROTAC:VHL binding. All compounds were injected for 60 s and allowed to dissociate for 300 s. Data analysis was performed in Scrubber 2 (BioLogic Software). Blanks from reference flow cell containing immobilized GST-VBC were subtracted to correct for noise and data were solvent-corrected against a standard DMSO curve. All reported Kd values represent an average of at least two replicates and were obtained by fitting to a minimum of five concentrations using a 1:1 fitting algorithm.

Setting [4] is: SPR ternary, Replicate 2, read-out: koff.
[5] abbreviates: SPR, ternary, VHL immobilized, read-out: p38δ:PROTAC:VHL koff.

Read-outs that look alike come from different tables or passages of the source.

T3 sequence (P40337 whole entry, one chain of several, the tested form may be a part): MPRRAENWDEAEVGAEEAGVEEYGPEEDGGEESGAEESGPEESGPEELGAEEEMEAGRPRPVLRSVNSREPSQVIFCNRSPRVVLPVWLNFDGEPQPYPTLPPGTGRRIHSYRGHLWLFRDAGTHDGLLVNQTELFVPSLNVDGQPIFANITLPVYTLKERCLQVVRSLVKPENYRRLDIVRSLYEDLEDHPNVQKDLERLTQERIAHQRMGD
T3 sequence (Q15370 whole entry partner, one chain of several, the tested form may be a part): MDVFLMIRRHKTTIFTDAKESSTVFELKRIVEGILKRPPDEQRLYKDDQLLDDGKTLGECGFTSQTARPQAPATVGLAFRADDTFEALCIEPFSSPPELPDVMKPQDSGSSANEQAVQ
T3 sequence (Q15369 whole entry partner, one chain of several, the tested form may be a part): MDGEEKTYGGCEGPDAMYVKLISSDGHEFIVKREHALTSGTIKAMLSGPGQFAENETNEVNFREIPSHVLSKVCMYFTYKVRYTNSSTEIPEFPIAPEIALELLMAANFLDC
T2 sequence (P28482 whole entry): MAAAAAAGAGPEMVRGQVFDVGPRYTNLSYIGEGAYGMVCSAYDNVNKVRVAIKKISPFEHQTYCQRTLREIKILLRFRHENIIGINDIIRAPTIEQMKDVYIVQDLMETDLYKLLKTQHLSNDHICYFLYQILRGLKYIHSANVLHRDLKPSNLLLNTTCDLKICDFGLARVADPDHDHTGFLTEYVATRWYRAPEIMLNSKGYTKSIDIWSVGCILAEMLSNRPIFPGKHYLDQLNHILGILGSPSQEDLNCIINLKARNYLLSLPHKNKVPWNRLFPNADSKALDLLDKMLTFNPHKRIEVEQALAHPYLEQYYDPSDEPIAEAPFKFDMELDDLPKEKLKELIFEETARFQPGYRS

Consider `COc1cc2c(Oc3ccc(NC(=O)C4(C(=O)Nc5ccc(F)cc5)CC4)cc3F)ccnc2cc1OCCCCOCCCCOCC(=O)N[C@H](C(=O)N1C[C@H](O)C[C@H]1C(=O)NCc1ccc(-c2scnc2C)cc1)C(C)(C)C` [SJFα], for which the “ubiquitination of immunoprecipitated FLAG-p38δ” value in series [1] is on record as “far less abundant”. In series [2], the ERK2 degradation result is on record as “neither PROTAC degrades”. Besides, the “ternary affinity weaker than the SJFδ-induced complex” value in series [3] (SPR) is on record as ~ 3 fold. Besides, the koff came to 0.083 s⁻¹ in series [3] (SPR ternary, Replicate 1, read-out: koff); 0.082 s⁻¹ in series [3] (setting [4]); 0.072 s⁻¹ in series [3] (setting [5]). Further, the “p38δ:PROTAC:VHL t1/2” value in series [3] (SPR) is on record as 8 s. In series [3] (SPR, ternary, VHL immobilized), this molecule had a kon of 70100 M⁻¹ s⁻¹.

Turning to `COc1cc2c(Oc3ccc(NC(=O)C4(C(=O)Nc5ccc(F)cc5)CC4)cc3F)ccnc2cc1OCCOCCOCCOc1cc(-c2scnc2C)ccc1CNC(=O)[C@@H]1C[C@@H](O)CN1C(=O)[C@H](C(C)C)N1Cc2ccccc2C1=O` [SJFδ], in series [1], the “ubiquitination of immunoprecipitated FLAG-p38δ” value was “levels of ubiquitination of immunoprecipitated p38δ greater than control cells”. The ERK2 degradation entry in series [2] is “neither PROTAC degrades”. Also, in series [3] (SPR), the “leftward shift of ternary affinity from the VHL:PROTAC binary affinity” value is given as ~ 8 fold. In addition, the koff in series [3] (setting [4]) came out at 0.017 s⁻¹; in series [3] (setting [5]), 0.018 s⁻¹. Moreover, the Kd in series [3] (SPR, Replicate 1) was 358 nM; in series [3] (SPR, Replicate 2) it was 514 nM. The “p38δ:PROTAC:VHL t1/2” value in series [3] (SPR) is 38 s. The molecule further came in with a kon in series [3] (SPR, ternary, VHL immobilized) of 39600 M⁻¹ s⁻¹.

Broadly, the koff is the rate constant with which the complex falls apart. What is called kon is the rate constant with which the complex forms. As a reminder, the Kd is the concentration at which binding is half-saturated.
